Consider 1 compound from the NIST ThermoML archive (doi:10.1021/acs.jced.8b01144).

± gives the expanded uncertainty stated by the source.

For this series the following is noted: Crystal; DSC.

Regarding `NC(=O)c1ccc(N)cc1` [4-aminobenzamide], the Triple point temperature was determined as 453.4 ± 1.2 K.
